{"source": "the supplement of paper PMC11061612", "key": {"[1]": {"system": "DU-145 (Prostate Carcinoma)", "experiment": "combination Emax (second highest fraction inhibited in the dose matrix, 72 h); higher = more inhibition; extreme values may be limits of the assay", "method_in_brief": "(§1)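 Bliss excess equals the observed combination effect minus the expected value EA + EB − EA·EB, where EA and EB are the effects of each agent alone. Combination Emax is the second-highest inhibition within the matrix. Inhibition was scaled from CellTiter-Glo 2.0 luminescence, with 0 set by vehicle wells and 1 by blank wells, after 72 hours of two-drug dosing of cells plated in 1536-well plates.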"}, "[2]": {"system": "SK-LU-1 (Lung Adenocarcinoma)", "experiment": "combination Emax (second highest fraction inhibited in the dose matrix, 72 h); higher = more inhibition; extreme values may be limits of the assay", "method_in_brief": "as §1"}}, "data": [{"smiles": "CN(CCO)CC[C@H](CSc1ccccc1)Nc1ccc(S(=O)(=O)NC(=O)c2ccc(N3CCC([C@@H](O)c4ccccc4-c4ccc(Cl)cc4)CC3)cc2)cc1S(=O)(=O)C(F)(F)F", "note": "[AZD4320] + CC(=O)O[C@H]1C(=O)[C@@]2(C)[C@H]([C@H](OC(=O)c3ccccc3)[C@]3(O)C[C@H](OC(=O)[C@H](O)[C@@H](NC(=O)c4ccccc4)c4ccccc4)C(C)=C1C3(C)C)[C@]1(OC(C)=O)CO[C@@H]1C[C@@H]2O [Paclitaxel] (first compound max 1 µM, 7x7, partner max 3 µM)", "values": [{"measurement": "combination Emax", "setting": "[1]", "value": 0.818}, {"measurement": "combination Emax", "setting": "[2]", "value": 0.741}]}, {"smiles": "CN(CCO)CC[C@H](CSc1ccccc1)Nc1ccc(S(=O)(=O)NC(=O)c2ccc(N3CCC([C@@H](O)c4ccccc4-c4ccc(Cl)cc4)CC3)cc2)cc1S(=O)(=O)C(F)(F)F", "note": "[AZD4320] + Nc1ccn([C@@H]2O[C@H](CO)[C@@H](O)C2(F)F)c(=O)n1 [Gemcitabine] (first compound max 1 µM, 7x7, partner max 0.3 µM)", "values": [{"measurement": "combination Emax", "setting": "[1]", "value": 0.485}, {"measurement": "combination Emax", "setting": "[2]", "value": 0.248}]}, {"smiles": "Cc1cc2ncnn2cc1Nc1ncc2c(n1)n(C1CCOCC1)c(=O)n2C", "note": "[AZD7648] + COc1cc([C@@H]2c3cc4c(cc3[C@@H](O[C@@H]3O[C@@H]5CO[C@@H](C)O[C@H]5[C@H](O)[C@H]3O)[C@H]3COC(=O)[C@H]23)OCO4)cc(OC)c1O [Etoposide] (first compound max 10 µM, 7x7, partner max 10 µM)", "values": [{"measurement": "combination Emax", "setting": "[1]", "value": 0.441}, {"measurement": "combination Emax", "setting": "[2]", "value": 0.47}]}, {"smiles": "N#Cc1cnc(Nc2cc(NC[C@H]3CNCCO3)c(C(F)(F)F)cn2)cn1", "note": "[SRA737] + C=CCn1c(=O)c2cnc(Nc3ccc(N4CCN(C)CC4)cc3)nc2n1-c1cccc(C(C)(C)O)n1 [AZD1775] (first compound max 10 µM, partner max 1 µM)", "values": [{"measurement": "combination Emax", "setting": "[1]", "value": 0.263}, {"measurement": "combination Emax", "setting": "[2]", "value": 0.442}]}, {"smiles": "N#Cc1cnc(Nc2cc(NC[C@H]3CNCCO3)c(C(F)(F)F)cn2)cn1", "note": "[SRA737] + CCc1c2c(nc3ccc(O)cc13)-c1cc3c(c(=O)n1C2)COC(=O)[C@]3(O)CC [SN-38] (first compound max 10 µM, 7x7, partner max 0.3 µM)", "values": [{"measurement": "combination Emax", "setting": "[1]", "value": 0.628}, {"measurement": "combination Emax", "setting": "[2]", "value": 0.639}]}, {"smiles": "N#Cc1cnc(Nc2cc(NC[C@H]3CNCCO3)c(C(F)(F)F)cn2)cn1", "note": "[SRA737] + Nc1ccn([C@@H]2O[C@H](CO)[C@@H](O)C2(F)F)c(=O)n1 [Gemcitabine] (first compound max 10 µM, 7x7, partner max 0.3 µM)", "values": [{"measurement": "combination Emax", "setting": "[1]", "value": 0.544}, {"measurement": "combination Emax", "setting": "[2]", "value": 0.389}]}, {"smiles": "N#Cc1cnc(Nc2cc(NC[C@H]3CNCCO3)c(C(F)(F)F)cn2)cn1", "note": "[SRA737] + O=c1[nH]cc(F)c(=O)[nH]1 [5-Fluorouracil] (first compound max 10 µM, 7x7, partner max 20 µM)", "values": [{"measurement": "combination Emax", "setting": "[1]", "value": 0.439}, {"measurement": "combination Emax", "setting": "[2]", "value": 0.369}]}]}
